Read-outs that look alike come from different tables or passages of the source.
Assays:
HIV NL4.3 strain = experiment: HIV infectivity assay, reporter cell line HeLa-CD4-LTR-LacZ, β-Gal activity (Tat protein inhibition); type: cell-based, HIV-1 (NL4.3)
Procedure, shortened: (§1)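 HeLa-CD4-LTR-LacZ reporter cells (β-Gal under HIV 5′ LTR) infected with HIV NL4.3; β-Gal activity read 72 h post infection, with parallel Cell-Titer-Glo viability. OM10.1 carry a single wild-type provirus; ACH-2 a single provirus with TAR C37T mutation, defective Tat-TAR feedback.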

HeLa-CD4-LTR-LacZ cells = experiment: Cytotoxicity assay, Cell-Titer-Glo, HeLa-CD4-LTR-LacZ; settings: read-out: Infectivity CC50, HeLa-CD4-LTR-LacZ
Procedure, shortened: as §1

[1] = as above; settings: human, hela-cd4-ltr-lacz cells, Infectivity CC50, HeLa-CD4-LTR-LacZ
Procedure, shortened: as §1

Flag-Tat = biological target: T1, Flag-Tat (Human immunodeficiency virus type 1 (HXB3 ISOLATE), UniProt P69698); experiment: Degradation assay: Flag-Tat in HEK293T cells, western blot; type: cell-based, HIV; settings: for Flag-Tat degradation / steady state: HEK293T, western blot
T1 construct: Tat 86 aa likely (9 lysines)
Procedure: Next, the effect of the three leads on the alteration of Tat steady state levels was assessed. Tat expression from an integrated provirus, or from HIV acute infection is generally too low to be detected by western blot. Furthermore, antibodies against Tat are known for their lack of avidity. Tat degradation was thus assessed upon transfection. Flag-Tat or Flag-GFP were individually transfected into HEK293T and 24 hrs later, TT-44856, TT-44863 or TT-44881 were added to the culture, followed by Western blot 24 hrs later (dubbed “degradation assay”) (FIG. 5A). […] These cells were treated with TNFα (previously determined not be degraded by the three leads in FIG. 2D) in the presence of TT-44856, TT-44863 or TT-44881, followed by western blot with an anti-Flag antibody 17 hrs later. […] Finally, the leads' impact on recombinant Tat protein in HEK293T cells was assessed (FIG. 5D). HEK293T cells were incubated with recombinant Tat for 4 hrs to allow Tat internalization, followed by several thorough washes to remove unincorporated Tat. Cells were then incubated with all three leads (or Triptolide) for an additional 2 hrs. Cells were lysed and analyzed by western blot with an anti-Tat serum.
Degradation of Tat has been reported in the literature in multiple ways, including the lysosomal pathway^23, the ubiquitin-independent 20S proteasomal pathway (due to its unfolded structure)^24,25, and the ubiquitin-dependent 26S proteasomal pathway^26. It was first assessed whether Tat was targeted to the lysosomal pathway by the lead compounds. HEK293T cells were transfected with Flag-Tat for 24 hrs, incubated with the compounds for an additional 24 hrs, then treated for 8 hrs with either 100 μM chloroquine or 50 mM NH4Cl, both known to inhibit lysosomal hydrolases by reducing acidification. […] Both the 20S and the 26S proteasomal pathways were next investigated using MG132, an inhibitor of the catalytic […] of 20S present in both pathways^27. The degradation assay was carried out as above, but compounds were simultaneously incubated with MG132 20 μM or DMSO for 17 hrs followed by western blot. In the presence of MG132, Tat degradation was rescued, but the rescue was higher in the presence of the lead compounds (FIG. 6B).
Protein ubiquitination occurs by sequential recruitment of ubiquitin-activating enzyme E1, ubiquitin-conjugating enzyme E2, and ubiquitin ligase E3 (using ubiquitin, substrate protein, and ATP). The selectivity in protein ubiquitination is conferred by E3 ubiquitin ligases that recognize the substrate proteins^29 and the human genome contains more than 600 E3 ubiquitin ligases^29. To determine whether the small molecule leads trigger the 20S or the 26S proteasomal pathways, the Tat degradation assay was performed in the presence of commercially available E3 ligase inhibitors, including Lenalidomide a E3 ubiquitin ligase Cereblon inhibitor. Cereblon has not been previously reported to ubiquitinate Tat. The degradation assays were performed as above with Lenalidomide (40 μM) or DMSO incubation for 4 hrs in the presence of the lead molecules (FIG. 7A). […] To confirm the engagement of Cereblon in the mechanism of action of the lead compounds, shRNAs were used to stably knock down Cerebelon, or CD8 control, in HEK293T cells, and the degradation assay for TT-44856 was performed.
The involvement of the ubiquitous VHL E3 ligase in the activity of TT-44881 inducing Tat degradation was also investigated. HEK293T cells overexpressing Tat protein and VHL siRNAs (or si control) were treated with either TT-44881 (60 μM) and DMSO or TT-44881 with a VHL PROTAC (CM11, 500 nM) for 24 hours. siRNAs and PROTACs were used together to maximize the depletion of both VHL isoforms (30 and 19 kDa).

ACH-2 cells = experiment: Cell-associated HIV Gag mRNA expression / HIV transcription in latently infected ACH-2 cells; type: cell-based; settings: ACH-2; 12-day treatment with ARVs
Procedure: (§2) Next, the activity of these leads against HIV infection was evaluated using the reporter cell line HeLa-CD4-LTR-LacZ, which stably expresses the β-galactosidase (β-Gal) gene under the control of the HIV 5′ LTR. The HIV NL4.3 strain was used for these studies and β-Gal activity was measured 72 hrs post infection (FIG. 3A). Cytotoxicity assays using Cell-Titer-Glo were performed in parallel to assess cell viability (FIG. 3A). […] Their anti-HIV activity was further assessed in acute replication of Jurkat T cells with the NL4.3 strain (FIG. 3A). […] These OM10.1 cells contain a single integrated wild-type provirus, while ACH-2 cells contain a single integrated provirus with a TAR mutation C37T, defective Tat-TAR feedback loop (FIG. 3B).

OM10.1 cells = experiment: Cell-associated HIV Gag mRNA expression / HIV transcription in latently infected OM10.1 cells; type: cell-based; settings: 12-day treatment with ARVs
Procedure: as §2

[2] = test system: TAR-SIIB promoter (Flag-Tat-Rev fusion protein); experiment: Flag-Tat-Rev fusion protein transactivation of TAR-SIIB promoter; type: cell-based, HIV-1; settings: SIIB reporter HEK293T
Procedure: FIG. 4. […] Shown is n=1. […] Shown is n=1. ARVs: antiretrovirals: 100 nM Efavirenz, 200 nM Lamivudine and 200 nM Raltegravir. C. […] SIIB: a reporter HEK293T stable cell line where the essential apical region of TAR was replaced by the 29-nucleotide stem-loop IIB (SIIB) subdomain of the HIV-1 RRE. A Tat-Rev fusion protein activates transcription of luciferase when Rev binds SIIB, bringing Tat and P-TEFb to RNAPII at the HIV promoter. Shown is mean±SEM of n=4.

[3] = test system: TAR (Flag-Tat-Rev fusion protein); experiment: Flag-Tat-Rev fusion protein transactivation via TAR; type: cell-based, HIV-1; settings: TAR reporter
recombinant Tat = biological target: T2, recombinant Tat (Human immunodeficiency virus type 1 (HXB3 ISOLATE), UniProt P69698); experiment: Recombinant Tat stability in HEK293T cells, western blot; type: cell-based, HIV; settings: 4 hrs recombinant Tat then 2 hrs compound, n=1
T2 construct: detected with anti-Tat serum
Procedure: Next, the effect of the three leads on the alteration of Tat steady state levels was assessed. Tat expression from an integrated provirus, or from HIV acute infection is generally too low to be detected by western blot. Furthermore, antibodies against Tat are known for their lack of avidity. Tat degradation was thus assessed upon transfection. Flag-Tat or Flag-GFP were individually transfected into HEK293T and 24 hrs later, TT-44856, TT-44863 or TT-44881 were added to the culture, followed by Western blot 24 hrs later (dubbed “degradation assay”) (FIG. 5A). […] Finally, the leads' impact on recombinant Tat protein in HEK293T cells was assessed (FIG. 5D). HEK293T cells were incubated with recombinant Tat for 4 hrs to allow Tat internalization, followed by several thorough washes to remove unincorporated Tat. Cells were then incubated with all three leads (or Triptolide) for an additional 2 hrs. Cells were lysed and analyzed by western blot with an anti-Tat serum.

[4] = read-out: Infectivity IC50, HeLa-CD4-LTR-LacZ, analogs of TT-44856 (Table 3)
[5] = Human immunodeficiency virus 1, read-out: Infectivity IC50, HeLa-CD4-LTR-LacZ, analogs of TT-44881 (Table 1)
[6] = Human immunodeficiency virus 1, read-out: Infectivity IC50, HeLa-CD4-LTR-LacZ, analogs of TT-44863 (Table 2)

T1 sequence (P69698 whole entry): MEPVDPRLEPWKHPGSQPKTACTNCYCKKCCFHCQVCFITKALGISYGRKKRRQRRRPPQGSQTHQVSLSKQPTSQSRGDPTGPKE
T2 sequence (P69698 whole entry): as above

Cc1nccn1CCCNC(=O)C(C)(c1ccccc1)c1ccccc1 [3-53]
IC50 (HIV NL4.3 strain; [4]): 1 to 10 µM | CC50 (HeLa-CD4-LTR-LacZ cells; analogs of TT-44856 (Table 3)): 50 to 100 µM

O=C(NCCCn1ccnc1)C(c1ccccc1)c1ccccc1 [3-71]
IC50 (HIV NL4.3 strain; [4]): 1 to 30 µM | CC50 (HeLa-CD4-LTR-LacZ cells; analogs of TT-44856 (Table 3)): > 100 µM

O=C(NCCCN1CCCC1=O)c1nn(-c2ccccc2)c2c1CCCC2 [GB-02]
IC50 (HIV NL4.3 strain; read-out: Infectivity IC50, HeLa-CD4-LTR-LacZ, analogs of TT-44881 (Table 1)): 50 to 100 µM | CC50 (HeLa-CD4-LTR-LacZ cells; analogs of TT-44881 (Table 1)): > 100 µM

CN(CCCN1CCCC1=O)C(=O)c1nn(-c2ccccc2)c2c1CCC2 [GB-04]
IC50 (HIV NL4.3 strain; [5]): > 100 µM | CC50 ([1]; analogs of TT-44881 (Table 1)): > 100 µM | Flag-Tat degradation / steady state (Flag-Tat): did not affect Flag-Tat steady state

COc1ccc(C#N)cc1NC(=O)Cn1cccc(Cl)c1=O [TT-46766]
IC50 (HIV NL4.3 strain; [6]): > 100 µM | CC50 ([1]; analogs of TT-44863 (Table 2)): > 100 µM | Flag-Tat degradation / steady state (Flag-Tat): did not affect Flag-Tat steady state

CC(C)[C@]12O[C@H]1[C@@H]1O[C@]13[C@]1(O[C@H]1C[C@H]1C4=C(CC[C@@]13C)C(=O)OC4)[C@@H]2O [Triptolide, reference compound]
Gag mRNA / HIV transcription (in words) (ACH-2 cells): reduced Gag mRNA in both cell lines | Gag mRNA / HIV transcription (in words) (OM10.1 cells): reduced Gag mRNA in both cell lines | Flag-Tat-Rev transactivation of TAR-SIIB [2]: inhibition of both TAR and TAR-SIIB | Flag-Tat-Rev / TAR [3]: inhibition of both TAR and TAR-SIIB | recombinant Tat degradation (recombinant Tat): degraded Tat as opposed to the DMSO control | Flag-Tat degradation / steady state (Flag-Tat): nonspecifically degraded Flag-Tat | effect of Lenalidomide on compound induced Flag-Tat degradation (Flag-Tat; Lenalidomide 40 μM, 4 hrs): did not engage the 26S proteasomal pathway, but only the 20S proteasomal pathway

CC(C)(C)OC(=O)COCCOCCOc1ccc(C(F)(F)F)cc1NC(=O)Cn1cc(C(F)(F)F)cc(Cl)c1=O [compound 56]
IC50 (HIV NL4.3 strain; read-out: Infectivity IC50, HeLa-CD4-LTR-LacZ, analogs of TT-44863 (Table 2)): > 100 µM | CC50 (HeLa-CD4-LTR-LacZ cells; analogs of TT-44863 (Table 2)): > 100 µM

Cc1ccc(C(F)(F)F)cc1NC(=O)Cn1cc(C(F)(F)F)cc(Cl)c1=O [compound 47001]
IC50 (HIV NL4.3 strain; [6]): 1 to 10 µM | CC50 ([1]; analogs of TT-44863 (Table 2)): > 100 µM

COc1ccc(C(F)(F)F)cc1NC(=O)Cn1cc(F)cc(Cl)c1=O [compound 47006]
IC50 (HIV NL4.3 strain; [6]): > 50 µM | CC50 ([1]; analogs of TT-44863 (Table 2)): > 50 µM

O=C(NCCCN1CCCC1=O)c1nn(-c2ccccc2)cc1F [compound 47010]
IC50 (HIV NL4.3 strain; [5]): > 100 µM | CC50 ([1]; analogs of TT-44881 (Table 1)): > 100 µM

O=C(NCCCN1CCCC1=O)c1nn(-c2ccccc2)cc1C1CC1 [compound 47011]
IC50 (HIV NL4.3 strain; [5]): > 100 µM | CC50 ([1]; analogs of TT-44881 (Table 1)): > 100 µM

COc1ccc(C(F)(F)F)cc1NC(=O)Cn1cc(C#N)cc(Cl)c1=O [compound 47018]
IC50 (HIV NL4.3 strain; [6]): > 50 µM | CC50 ([1]; analogs of TT-44863 (Table 2)): > 50 µM
